Data from the Biogen ADME set (Fang et al. 2023).
Values after ≈ are worked out from the molar mass of the structure shown.

Details: for aqueous solubility: pH 6.8

| SMILES | intrinsic clearance, human liver microsomes [mL/min/kg] | intrinsic clearance, rat liver microsomes [mL/min/kg] | aqueous solubility [µg/mL] | MDR1-MDCK efflux ratio | fraction unbound, human plasma | fraction unbound, rat plasma |
| --- | --- | --- | --- | --- | --- | --- |
| c1ccc(-n2cnc3cc(NCc4ccccn4)ccc32)cc1 | 22.6 | 3200 | 18.4 (≈ 61.3 µM) |  |  |  |
| Nc1nncc(-c2ccccc2OC(F)F)n1 | ≤ 4.74 | ≤ 10.7 | 38.9 (≈ 163 µM) | 0.709 |  |  |
| O=C(Nc1nc2ccccc2[nH]1)c1ccc(-n2cccc2)cc1 |  |  |  | 0.359 |  |  |
| C[C@@H](NC(=O)N1CCC2(CCOCC2)CC1)c1ccc(F)cc1 | 6.19 | 237 |  | 2.32 |  |  |
| O=C1CCCN1c1ccc(NCc2ccccn2)nc1 | ≤ 4.74 | ≤ 10.7 | 54.4 (≈ 203 µM) | 1.31 |  |  |
| Cc1cc(=O)n(C)c2cc(N3C(=O)CC[C@H](NS(=O)(=O)CC(C)C)[C@H]3c3ccc(Cl)cc3)ccc12 | 370 | 944 | 44.4 (≈ 86 µM) | 1.48 |  |  |
| CN(CCc1ccccc1)C(=O)CC#N | ≤ 4.74 | ≤ 10.7 | 32.5 (≈ 161 µM) | 0.666 |  |  |
| Cc1cc2cc(C(=O)N(C)CCC(=O)O)oc2cc1C | ≤ 4.74 | ≤ 10.7 | 47 (≈ 171 µM) | 1.72 |  |  |
| C=CC(=O)Nc1cccc(Oc2nc(Nc3ccc(N4CCN(C)CC4)cc3)nc3ccoc23)c1 | 16.2 | 329 | 28.6 (≈ 60.8 µM) | 22 | 0.014 | 0.00619 |
| Cc1nc(-c2ccc(C)c(O)c2)n(C(C)(C)C)n1 | ≤ 4.74 | 124 | 12.1 (≈ 49.3 µM) |  |  |  |
| C=CCN(Cc1cccnc1)c1nc(C)nc2sccc12 | 188 | 1480 | 45.5 (≈ 154 µM) | 0.798 |  |  |
| CO[C@H]1[C@H](C2(C)O[C@@H]2CC=C(C)C)[C@]2(CC[C@H]1OC(=O)/C=C/c1ccc(OCCN(C)C)cc1)CO2 (some centres undefined) | 210 | 795 |  |  |  |  |
| COC(=O)c1cccc2c1CCCN2C(=O)c1ccc(F)cc1F | 1150 | 2000 |  | 0.708 |  |  |
| Cc1ncc(CN2CCC(Nc3ccc4nnnn4n3)C(C)C2)s1 (centres undefined) | 16.2 | 122 |  | 27.5 | 0.449 | 0.379 |
| NC1CCCC(C(=O)Nc2cccc(N3CCNC3=O)c2)C1 (centres undefined) | ≤ 4.74 |  |  | 1.33 | 0.58 |  |
| CCOCC(=O)N1CCC2(CCc3ccccc3O2)CC1 | 10.3 | 818 | 34.1 (≈ 118 µM) | 0.732 |  |  |
| O=C(NCc1nncn1-c1ccccc1)C1CCCC1 | ≤ 4.74 | 12.2 | 43.3 (≈ 160 µM) | 20.8 |  |  |
| Cc1ccnc(NCc2cccnc2)n1 | ≤ 4.74 | 16.5 |  | 0.596 |  |  |
| Cc1cc(C)c(NC(=O)c2cc(Cl)ccc2F)c(C)n1 | 8.2 | 40 | 62.8 (≈ 215 µM) | 0.756 |  |  |

| SMILES | intrinsic clearance, human liver microsomes [mL/min/kg] | intrinsic clearance, rat liver microsomes [mL/min/kg] | aqueous solubility [µg/mL] | MDR1-MDCK efflux ratio | fraction unbound, human plasma | fraction unbound, rat plasma |
| --- | --- | --- | --- | --- | --- | --- |
| COc1ccc(C(=O)C2CCN(CC(=O)N(Cc3nc4c(c(=O)[nH]3)COCC4)CC3CC3)CC2)cc1 | 10.9 | 45.5 | 94.5 (≈ 191 µM) | 53.8 |  |  |
| CCCN1CCn2nc(-c3nc4cc(OC)ccc4[nH]3)cc2C1 | ≤ 4.74 | 280 | 40.1 (≈ 129 µM) | 0.825 |  |  |
| COc1ccc(C(=O)Nc2cc(-c3ccc(F)c(F)c3)no2)cc1 |  |  | 0.35 (≈ 1.06 µM) | 0.43 |  |  |
| CN(C)c1ncn(-c2cccc(N)c2)n1 | 15.3 | 25.4 | 22.1 (≈ 109 µM) | 0.596 |  |  |
| COCc1nc(C2CCN(CCO)CC2)no1 | ≤ 4.74 | 72.4 | 36.1 (≈ 150 µM) |  |  |  |
| CCc1nc(C)cn2nc(-c3cc(=O)n4cc(C5CCN(C)CC5)cc(C)c4n3)cc12 | ≤ 4.74 | 25.7 | 17.7 (≈ 42.4 µM) | 3.62 | 0.0738 | 0.0392 |
| O=C(CN1CCCC(c2cccc(Cc3cccc(F)c3)n2)C1)N1CCCC1 (centres undefined) | 76.2 | 1140 |  |  | 0.115 | 0.0899 |
| CC(C)c1nccn1Cc1nc2ccccc2[nH]1 | ≤ 4.74 | 238 |  | 24.4 |  |  |
| CCc1ccc(NC(=O)C2CCN(c3ccc4nncn4n3)CC2)cc1 | 4.86 | 34.6 | 1.15 (≈ 3.28 µM) | 13.6 |  |  |
| COc1ncnc(C)c1-c1cccc(OC(C)C)c1 | 63.5 | 1060 |  | 0.634 |  |  |
| C[C@@H](CN1CCC(n2c(=O)[nH]c3cc(Cl)ccc32)CC1)NC(=O)c1ccc2ccccc2c1 | 104 | 668 | 3.85 (≈ 8.32 µM) |  |  |  |
| Cc1ccc(NC(=O)c2nn(-c3ccccc3)nc2C)cc1 |  |  | 0.29 (≈ 0.992 µM) |  |  |  |
| Nc1ccc(C(=O)N2CCOCC2)c(Cl)c1 | ≤ 4.74 | ≤ 10.7 | 38.1 (≈ 159 µM) | 0.476 |  |  |
| Cc1cccc(-c2nc(CN(Cc3cnn(C)c3)C(C)C)c(C)o2)c1 | 62.6 | 4560 | 21.4 (≈ 63.4 µM) | 1.24 |  |  |
| COc1cc(F)ccc1-c1ncnc(Nc2cccc(C[S@@](C)(=N)=O)c2)n1 | ≤ 4.74 | ≤ 10.7 | 53.7 (≈ 139 µM) | 150 | 0.393 | 0.375 |
| Cc1cc(-c2cnn(CCNC(=O)c3sc(C)nc3C)c2C2CC2)on1 | 23.8 | 123 | 67.1 (≈ 181 µM) | 5.26 |  |  |
| CC(C)n1nccc1-c1ncccc1COc1cccc(O)c1C=O | 150 | 716 | 37.9 (≈ 112 µM) |  |  |  |
| O=C(CSC1CCCC1)N1CCC(n2ccnn2)CC1 | 13.2 | 138 | 39.1 (≈ 133 µM) | 1.3 |  |  |
| COC(=O)c1ccc(NC(=O)N(C)Cc2ccccc2CN2CCCC2)cc1 | 18.2 | 277 | 40.8 (≈ 107 µM) | 7.85 |  |  |

| SMILES | intrinsic clearance, human liver microsomes [mL/min/kg] | intrinsic clearance, rat liver microsomes [mL/min/kg] | aqueous solubility [µg/mL] | MDR1-MDCK efflux ratio | fraction unbound, human plasma | fraction unbound, rat plasma |
| --- | --- | --- | --- | --- | --- | --- |
| O=C(NCc1ccccn1)c1ccc(F)cc1Cl | ≤ 4.74 | ≤ 10.7 | 39.2 (≈ 148 µM) | 0.596 |  |  |
| O=c1sn(-c2cccc3ccccc23)c(=O)n1Cc1ccccc1 |  |  | 0.4 (≈ 1.2 µM) |  |  |  |
| Cc1noc(CCNc2cccc(F)c2C#N)n1 | 40.7 | 266 |  |  |  |  |
| N#Cc1ncn(Cc2ncc(-c3ccccc3)s2)c1C#N |  |  | 44.5 (≈ 153 µM) |  |  |  |
| CCc1nnc(Sc2nc3cc(C)nn3c3ccccc23)[nH]1 | 13.7 | 139 |  | 1.21 |  |  |
| N#CCCN(C(=O)c1sccc1C#N)C12CC3CC(CC(C3)C1)C2 | 320 | 1600 | 7.8 (≈ 23 µM) | 1.16 |  |  |
| c1cc(CN2CCC(c3ccn[nH]3)CC2)ccn1 | 5.91 | 32.1 | 28.2 (≈ 116 µM) | 1.05 |  |  |
| Cc1nnc(COc2cccc(-n3ccnc3)c2)n1C1CC1 | ≤ 4.74 | 16.6 |  | 23.1 |  |  |
| CN(C)[C@@H]1CN(C(=O)c2cc3ccc(F)cc3[nH]2)C[C@H]1O | ≤ 4.74 | 121 | 55.1 (≈ 189 µM) | 4.4 |  |  |
| CC(=O)c1ccc2c(c1)CCN(CC1CCC3(CC1)OCCO3)CC2 | ≤ 4.74 | 229 |  | 0.556 |  |  |
| Cc1cn(-c2cc(NC(=O)c3ccc(C)c(Nc4nccc(-c5cccnc5)n4)c3)cc(C(F)(F)F)c2)cn1 |  |  |  | 8.9 |  |  |
| CC(C)n1cc(CN2CCC(c3nc(N(C)C)no3)CC2)cn1 | ≤ 4.74 | 179 |  | 1.79 |  |  |
| CCCS(=O)(=O)c1nc(NC2CC2)cc(-c2ccc3c(ccn3C3CC(C)(C)NC(C)(C)C3)c2)n1 | 51.1 | 123 |  | 34.9 |  |  |
| CCc1nc2ccccc2n1CC(=O)N1CCNC(=O)C1 | ≤ 4.74 | ≤ 10.7 | 50.6 (≈ 177 µM) | 3.86 |  |  |
| CN1C(=O)COc2cc(NC(=O)C3CC=CC3)ccc21 | ≤ 4.74 | 92.7 |  |  |  |  |
| NC1(c2ccc(-c3nc4ccn5c(=O)[nH]nc5c4cc3-c3ccccc3)cc2)CCC1 | 14.7 | 17.1 |  |  |  |  |
| COC(=O)c1c(C)[nH]c(C(=O)OCC(=O)N(C)Cc2cccs2)c1C | 54.1 | 484 | 40.6 (≈ 111 µM) | 1.47 |  |  |
| COc1cc(OC)cc(C(=O)NCc2noc(-c3ccccc3)n2)c1 | 34.9 | 628 |  | 0.335 |  |  |
